Results reported in patent EP0094632A1, “(-)-15-Deoxyspergualin, a process for the preparation of the same, and a pharmaceutical composition containing the same” (priority 1982, dated 1983).

Columns and labels:
Chemical stability = type: physicochemical
[1] = system: Mouse Leukemia L1210 cells; assay: Treatment of mouse Leukemia L1210 (survival of intraperitoneally inoculated mice); type: in vivo; settings: for No. of mice that survived 60 days: groups of 8 mice; for T/C %: observed 60 days
Experimental: […] Mouse Leukemia L1210 cells were inoculated intraperitoneally to groups of 8 mice each. The test compound dissolved in physiological saline solution was intraperitoneally administered once daily for 9 consecutive days, starting on the day inoculation. The animals were raised and observed for 60 days to determine survival rates (%). The survival rates were calculated from the following equation:
T [average period (in days) of survival for the treatment group] X 100
C [average period (in days) for survival for the non-treatment group]
The average survival period for the control (non-treatment group was 7.6 go 8.9 days.
The test results are shown in Table 1 along with those on (-)-spergualin.
Table 1:Efficacy of (-)-15-deoxyspergualin in the treatment of mose Leukemia L1210

[2] = Carcinostatic action compared with synthetic 15-deoxyspergualin; settings: compared with 15-deoxyspergualin synthesized previously by condensation
[3] = system: Bacillus subtilis PCI-219; assay: Antibacterial activity relative to (-)-spergualin; type: cell-based; settings: relative to (-)-spergualin (3HCl·½H2O)
Source text: The compound was colorless and syrupy, and its melting point could not be measured clearly. […] The antibacterial activity against Bacillus subtilis PCI-219' was 134 % of that of (-)-spergualin (3HCl·½H2O).

[4] = 0.05 mg/kg/day i.p. once daily for 9 days
[5] = 0.10 mg/kg/day i.p. once daily for 9 days
[6] = 0.20 mg/kg/day i.p. once daily for 9 days
[7] = 0.39 mg/kg/day i.p. once daily for 9 days
[8] = 0.78 mg/kg/day i.p. once daily for 9 days
[9] = 1.56 mg/kg/day i.p. once daily for 9 days
[10] = 3.13 mg/kg/day i.p. once daily for 9 days
[11] = 6.25 mg/kg/day i.p. once daily for 9 days
[12] = 12.5 mg/kg/day i.p. once daily for 9 days
[13] = 25 mg/kg/day i.p. once daily for 9 days
[14] = 50 mg/kg/day i.p. once daily for 9 days

## N=C(N)NCCCCCCC(=O)NC(O)C(=O)NCCCCNCCCN (single isomer, unassigned; (-)) [(-)-15-Deoxyspergualin, (-)-15-deoxyspergualin]
Chemical stability; alkalis and acids
  stability to alkalis and acids: very unstable
Chemical stability; free base
  stability in the form of a free base: unstable
[1]; [4]
  No. of mice that survived 60 days: 0/8
  T/C %: 129%
[1]; [5]
  No. of mice that survived 60 days: 0/8
  T/C %: 138%
[1]; [6]
  No. of mice that survived 60 days: 6/8
  T/C %: >664%
[1]; [7]
  No. of mice that survived 60 days: 6/8
  T/C %: >629%
[1]; [8]
  No. of mice that survived 60 days: 8/8
  T/C %: >789%
[1]; [9]
  No. of mice that survived 60 days: 2/8
  T/C %: >493%
[1]; [10]
  No. of mice that survived 60 days: 2/8
  T/C %: >526%
[1]; [11]
  No. of mice that survived 60 days: 0/8
  T/C %: 408%
[2]
  carcinostatic action: markedly better carcinostatic action
[3]
  antibacterial activity against Bacillus subtilis PCI-219, % of that of (-)-spergualin: 134%

## N=C(N)NCCCC[C@H](O)CC(=O)NC(O)C(=O)NCCCCNCCCN (single isomer, unassigned; (-)) [(-)-Spergualin, (-)-spergualin, reference compound]
[1]; [8]
  No. of mice that survived 60 days: 0/8
  T/C %: 107%
[1]; [9]
  No. of mice that survived 60 days: 1/8
  T/C %: >301%
[1]; [10]
  No. of mice that survived 60 days: 3/8
  T/C %: >441%
[1]; [11]
  No. of mice that survived 60 days: 8/8
  T/C %: >732%
[1]; [12]
  No. of mice that survived 60 days: 4/8
  T/C %: >586%
[1]; [13]
  No. of mice that survived 60 days: 0/8
  T/C %: 334%
[1]; [14]
  No. of mice that survived 60 days: 0/8
  T/C %: 295%
